pKi: −log10 of the molar value.

Here are results for 26 compounds from patent publication US12492181B2, “Gem-disubstituted piperidine melanocortin subtype-2 receptor (MC2R) antagonists and uses thereof” (Crinetics Pharmaceuticals, Inc., priority 2019, dated 2025).

For the experiment, the target named is T1, hMC2 receptor (crude hMC2R membranes from CRE-bla-CHO-K1 cells stably expressing hMC2 receptor and hMRAP accessory protein) (Homo sapiens, UniProt Q01718).
T1 construct: crude membrane fractions
T1 sequence (Q01718 whole entry): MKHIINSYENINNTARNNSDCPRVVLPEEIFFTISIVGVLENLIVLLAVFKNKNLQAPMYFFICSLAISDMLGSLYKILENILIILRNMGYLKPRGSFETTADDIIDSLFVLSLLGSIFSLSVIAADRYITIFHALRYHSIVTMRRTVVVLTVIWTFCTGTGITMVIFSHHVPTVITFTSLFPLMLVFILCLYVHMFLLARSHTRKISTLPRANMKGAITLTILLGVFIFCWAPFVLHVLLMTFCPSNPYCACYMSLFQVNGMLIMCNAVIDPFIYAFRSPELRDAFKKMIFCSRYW
T1 sequence (Q8TCY5 whole entry partner): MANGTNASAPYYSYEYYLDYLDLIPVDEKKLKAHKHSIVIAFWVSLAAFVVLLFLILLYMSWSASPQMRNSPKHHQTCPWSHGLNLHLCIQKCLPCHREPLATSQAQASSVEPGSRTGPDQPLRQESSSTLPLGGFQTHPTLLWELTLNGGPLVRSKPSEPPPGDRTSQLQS
The experiment can be described thus: hMC2 membrane binding assay ([125I]ACTH (1-39) Tyr23, SPA). The note with it: displacement of 0.2 nM [125I]ACTH (1-39) Tyr23 from hMC2R membranes, 1.5 hours at room temperature; read-out: MC2R binding potency. In a few lines:
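Ki values come from non-linear regression of SPA scintillation counts, with compounds displacing [125I]ACTH(1-39) Tyr23. Membranes come from CRE-bla-CHO-K1 cells stably expressing hMC2 receptor together with hMRAP. They are preincubated with WGA-coated PVT SPA beads in 50 mM HEPES pH 7.4 with 0.20% BSA, Mg2+, Ca2+ and protease inhibitors.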
For `CN1CC[C@H](NC(=O)C2(c3ccc(-c4ncoc4C4CC4)nc3)CCN(c3ccc(C(F)(F)F)cc3C#N)CC2)C1` [Compound 1-182, 1-[2-cyano-4-(trifluoromethyl)phenyl]-4-[6-(5-cyclopropyl-1,3-oxazol-4-yl)pyridin-3-yl]-N-[(3S)-1-methylpyrrolidin-3-yl]piperidine-4-carboxamide], the pKi is 7.00 to 8.00. The figure for `CCOc1ccccc1-c1ncc(C2(C(=O)N[C@H]3CCN(C)C3)CCN(c3ccc(C(F)(F)F)cc3F)CC2)cc1F` [Compound 1-200, 4-[6-(2-ethoxyphenyl)-5-fluoropyridin-3-yl]-1-[2-fluoro-4-(trifluoromethyl)phenyl]-N-[(3S)-1-methylpyrrolidin-3-yl]piperidine-4-carboxamide] is over 8.00.

Consider `CN(C)CCCNC(=O)C1(c2ccc(-c3cccn3C)nc2)CCN(c2ccc(C(F)(F)F)cc2C#N)CC1` [Compound 1-207, 1-[2-cyano-4-(trifluoromethyl)phenyl]-N-[3-(dimethylamino)propyl]-4-[6-(1-methyl-1H-pyrrol-2-yl)pyridin-3-yl]piperidine-4-carboxamide], for which the pKi is over 8.00.

For `CCCc1ccccc1-c1ccc(C2(C(=O)N[C@@H]3CCN(C)C3)CCN(c3ccc(C(F)(F)F)cc3C#N)CC2)cn1` [Compound 1-117, 1-[2-cyano-4-(trifluoromethyl)phenyl]-N-[(3R)-1-methylpyrrolidin-3-yl]-4-[6-(2-propylphenyl)pyridin-3-yl]piperidine-4-carboxamide], the pKi is over 8.00.

In the case of `CCOc1ncccc1-c1ncc(C2(C(=O)NCCN(C)C)CCN(c3ccc(C(F)(F)F)cc3Cl)CC2)cc1F` [Compound 1-288, 1-[2-chloro-4-(trifluoromethyl)phenyl]-N-[2-(dimethylamino)ethyl]-4-{2′-ethoxy-3-fluoro-[2,3′-bipyridin]-5-yl}piperidine-4-carboxamide], the pKi was over 8.00. On to `CCOC(=O)N1CC[C@H](NC(=O)C2(c3ccc(-c4cccn4C)nc3)CCN(c3ccc(C(F)(F)F)cc3C#N)CC2)C1` [Compound 1-184, ethyl (3S)-3-{1-[2-cyano-4-(trifluoromethyl)phenyl]-4-[6-(1-methyl-1H-pyrrol-2-yl)pyridin-3-yl]piperidine-4-amido}pyrrolidine-1-carboxylate], for which the pKi is 6.00 to 7.00. Take `Cc1cccnc1-c1ccc(C2(C(=O)N[C@@H]3CCN(C)C3)CCN(c3ccc(C(F)(F)F)cc3C#N)CC2)cn1` [Compound 1-177, 1-[2-cyano-4-(trifluoromethyl)phenyl]-4-{3′-methyl-[2,2′-bipyridin]-5-yl}-N-[(3R)-1-methylpyrrolidin-3-yl]piperidine-4-carboxamide]: the pKi is 6.00 to 7.00. The figure for `CCOc1ncccc1-c1ncc(C2(C(=O)NCCNC)CCN(c3ccc(C(F)(F)F)cc3C#N)CC2)cc1F` [Compound 1-311, 1-[2-cyano-4-(trifluoromethyl)phenyl]-4-{2′-ethoxy-3-fluoro-[2,3′-bipyridin]-5-yl}-N-[2-(methylamino)ethyl]piperidine-4-carboxamide] is over 8.00. The value for `Cc1ncncc1-c1ccc(C2(C(=O)N[C@@H]3CCN(C)C3)CCN(c3ccc(C(F)(F)F)cc3C#N)CC2)cn1` [Compound 1-105, 1-[2-cyano-4-(trifluoromethyl)phenyl]-4-[6-(4-methylpyrimidin-5-yl)pyridin-3-yl]-N-[(3R)-1-methylpyrrolidin-3-yl]piperidine-4-carboxamide] was 7.00 to 8.00; that for `CCOc1ncccc1-c1ccc(C2(C(=O)N[C@H]3CCN(C)C3)CCN(c3ccc(C(F)(F)F)cc3Cl)CC2)cn1` [Compound 1-141, 1-[2-chloro-4-(trifluoromethyl)phenyl]-4-{2′-ethoxy-[2,3′-bipyridin]-5-yl}-N-[(3S)-1-methylpyrrolidin-3-yl]piperidine-4-carboxamide] was over 8.00; that for `COc1ccccc1-c1ncc(C2(NC(=O)N[C@@H]3CCN(C)C3)CCN(c3ccc(C(F)(F)F)cc3C#N)CC2)cc1F` [Compound 2-52, 1-{1-[2-cyano-4-(trifluoromethyl)phenyl]-4-[5-fluoro-6-(2-methoxyphenyl)pyridin-3-yl]piperidin-4-yl}-3-[(3R)-1-methylpyrrolidin-3-yl]urea] was over 8.00. As to `CCOc1ncccc1-c1ccc(C2(NC(=O)N[C@H]3CCN(C)C3)CCN(c3ccc(C(F)(F)F)cc3C#N)CC2)cn1` [Compound 2-20, 1-{1-[2-cyano-4-(trifluoromethyl)phenyl]-4-{2′-ethoxy-[2,3′-bipyridin]-5-yl}piperidin-4-yl}-3-[(3S)-1-methylpyrrolidin-3-yl]urea], the pKi is over 8.00. The figure for `CN1CC[C@@H](NC(=O)C2(c3ccc(-c4cc(F)cc(F)c4)nc3)CCN(c3ccc(C(F)(F)F)cc3C#N)CC2)C1` [Compound 1-65, 1-[2-cyano-4-(trifluoromethyl)phenyl]-4-[6-(3,5-difluorophenyl)pyridin-3-yl]-N-[(3R)-1-methylpyrrolidin-3-yl]piperidine-4-carboxamide] is 7.00 to 8.00.

With `CC(=O)c1sccc1-c1ccc(C2(C(=O)N[C@H]3CCN(C)C3)CCN(c3ccc(C(F)(F)F)cc3C#N)CC2)cn1` [Compound 1-146, 4-[6-(2-acetylthiophen-3-yl)pyridin-3-yl]-1-[2-cyano-4-(trifluoromethyl)phenyl]-N-[(3S)-1-methylpyrrolidin-3-yl]piperidine-4-carboxamide], the pKi is over 8.00. Regarding `COc1ccccc1-c1ccc(C2(C(=O)N[C@@H]3CN(C)C[C@H]3F)CCN(c3ccc(C(F)(F)F)cc3C#N)CC2)cn1` [Compound 1-243, 1-[2-cyano-4-(trifluoromethyl)phenyl]-N-[(3R,4R)-4-fluoro-1-methylpyrrolidin-3-yl]-4-[6-(2-methoxyphenyl)pyridin-3-yl]piperidine-4-carboxamide], the pKi is over 8.00.

As for `CCOc1ncccc1-c1ccc(C2(C(=O)NCCNC)CCN(c3ccc(C(F)(F)F)cc3Cl)CC2)cn1` [Compound 1-225, 1-[2-chloro-4-(trifluoromethyl)phenyl]-4-{2′-ethoxy-[2,3′-bipyridin]-5-yl}-N-[2-(methylamino)ethyl]piperidine-4-carboxamide], the pKi is over 8.00. With `COc1ccccc1-c1ccc(C2(C(=O)NCCN(C)C)CCN(c3ccc(C(F)(F)F)cc3C#N)CC2)cn1` [Compound 1-212, 1-[2-cyano-4-(trifluoromethyl)phenyl]-N-[2-(dimethylamino)ethyl]-4-[6-(2-methoxyphenyl)pyridin-3-yl]piperidine-4-carboxamide], the pKi is over 8.00. The figure for `Cn1cccc1-c1ccc(C2(C(=O)N[C@@H]3CN4CCC3CC4)CCN(c3ccc(C(F)(F)F)cc3C#N)CC2)cn1` [Compound 1-187, N-[(3S)-1-azabicyclo[2.2.2]octan-3-yl]-1-[2-cyano-4-(trifluoromethyl)phenyl]-4-[6-(1-methyl-1H-pyrrol-2-yl)pyridin-3-yl]piperidine-4-carboxamide] is over 8.00; for `CN1CC(F)(F)C[C@H]1CNC(=O)C1(c2ccc(-c3cccn3C)nc2)CCN(c2ccc(C(F)(F)F)cc2C#N)CC1` [Compound 1-279, 1-[2-cyano-4-(trifluoromethyl)phenyl]-N-{[(2S)-4,4-difluoro-1-methylpyrrolidin-2-yl]methyl}-4-[6-(1-methyl-1H-pyrrol-2-yl)pyridin-3-yl]piperidine-4-carboxamide] it is 6.00 to 7.00. `COc1c(F)cccc1-c1ccc(C2(C(=O)N[C@@H]3CCN(C)C3)CCN(c3ccc(C(F)(F)F)cc3C#N)CC2)cn1` [Compound 1-82, 1-[2-cyano-4-(trifluoromethyl)phenyl]-4-[6-(3-fluoro-2-methoxyphenyl)pyridin-3-yl]-N-[(3R)-1-methylpyrrolidin-3-yl]piperidine-4-carboxamide]: the pKi was over 8.00. For the compound `CCOc1ccccc1-c1ccc(C2(NC(=O)[C@H]3CCN(C)C3)CCN(c3ccc(Cl)cc3C#N)CC2)cn1` [Compound 2-28, (3S)—N-[1-(4-chloro-2-cyanophenyl)-4-[6-(2-ethoxyphenyl)pyridin-3-yl]piperidin-4-yl]-1-methylpyrrolidine-3-carboxamide], the pKi is over 8.00. The value for `COc1ccccc1-c1ccc(C2(C(=O)NCCN(C)C)CCN(c3ccc(C(F)(F)F)cc3Cl)CC2)cn1` [Compound 1-255, 1-[2-chloro-4-(trifluoromethyl)phenyl]-N-[2-(dimethylamino)ethyl]-4-[6-(2-methoxyphenyl)pyridin-3-yl]piperidine-4-carboxamide] was over 8.00; that for `CCOc1ncccc1-c1ncc(C2(C(=O)N[C@H]3CCN(C)C3)CCN(c3ccc(C(F)(F)F)cc3C#N)CC2)cn1` [Compound 1-106, 1-[2-cyano-4-(trifluoromethyl)phenyl]-4-[2-(2-ethoxypyridin-3-yl)pyrimidin-5-yl]-N-[(3S)-1-methylpyrrolidin-3-yl]piperidine-4-carboxamide] was over 8.00; that for `CN(C)CCNC(=O)C1(c2ccc(-c3cccn3C)nc2)CCN(c2ccc(C(F)(F)F)cc2F)CC1` [Compound 1-276, N-[2-(dimethylamino)ethyl]-1-[2-fluoro-4-(trifluoromethyl)phenyl]-4-[6-(1-methyl-1H-pyrrol-2-yl)pyridin-3-yl]piperidine-4-carboxamide] was over 8.00. With `CN(C)CCNC(=O)C1(c2ccc(-c3cccn3C)nc2)CCN(c2ccc(C(F)(F)F)cc2C#N)CC1` [Compound 1-216, 1-[2-cyano-4-(trifluoromethyl)phenyl]-N-[2-(dimethylamino)ethyl]-4-[6-(1-methyl-1H-pyrrol-2-yl)pyridin-3-yl]piperidine-4-carboxamide], the pKi was over 8.00.

In the case of `CCOc1ncccc1-c1ccc(C2(C(=O)N[C@H]3CCN(C)C3)CCN(c3ccc(C(F)(F)F)cc3C#N)CC2)nn1` [Compound 1-56, 1-[2-cyano-4-(trifluoromethyl)phenyl]-4-[6-(2-ethoxypyridin-3-yl)pyridazin-3-yl]-N-[(3S)-1-methylpyrrolidin-3-yl]piperidine-4-carboxamide], the pKi was over 8.00.
